Data on 14 compounds can be found in patent US7456165B2, “HCV NS5B inhibitors” (Bristol-Myers Squibb Company, priority 2006, dated 2008).

Read-outs that look alike come from different tables or passages of the source. Some results are limits rather than exact numbers.

One assay addresses T1, HCV NS5B (Hepatitis C virus genotype 1b, UniProt Q9WMX2).
T1 construct: The protein was expressed with an 18 amino acid C-terminal truncation to enhance the solubility; made in house; host or cells: E. coli BL21(DE3)
Nature of the assay: HCV NS5B RdRp enzyme assay (preincubation protocol). The conditions noted are these: HCV NS5B RdRp genotype 1b. It is filed as biochemical. In outline:
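Preincubation format uses C-terminally truncated (Δ18) NS5B 1b from E. coli at 14 nM, added to compound before polyA template (0.2 nM), 3H-UTP (0.29 μM) and oligo-dT12 primer precaptured on SPA beads (20 nM). Buffer was 20 mM Hepes pH 7.5, 2% DMSO, run 4 h at 30° C. IC50 came from seven concentrations.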

Another assay relates to HCV replicon cells. The assay can be described thus: HCV replicon FRET assay. It counts as cell-based. In outline:
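Huh-7-derived HCV replicon cells (with or without Renilla luciferase reporter) incubated with titrated compound at 37° C. Lysed cells then read by NS3 cleavage of EDANS/DABCYL FRET peptide (20 μM, 340/490 nm, kinetic) or by Dual-Glo luciferase. EC50 is concentration giving 50% signal reduction after protease-inhibitor background subtraction; Alamar blue gives cytotoxicity.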
For orientation: A replicon is a self-replicating genome or part of one, used to study replication in cells.

The term IC50 denotes the midpoint of a concentration-inhibition curve. Low readings indicate inhibition by little substance, high ones a need for much substance. Usually EC50 stands for the concentration giving half of the maximal effect.

T1 sequence (Q9WMX2 2420-2992): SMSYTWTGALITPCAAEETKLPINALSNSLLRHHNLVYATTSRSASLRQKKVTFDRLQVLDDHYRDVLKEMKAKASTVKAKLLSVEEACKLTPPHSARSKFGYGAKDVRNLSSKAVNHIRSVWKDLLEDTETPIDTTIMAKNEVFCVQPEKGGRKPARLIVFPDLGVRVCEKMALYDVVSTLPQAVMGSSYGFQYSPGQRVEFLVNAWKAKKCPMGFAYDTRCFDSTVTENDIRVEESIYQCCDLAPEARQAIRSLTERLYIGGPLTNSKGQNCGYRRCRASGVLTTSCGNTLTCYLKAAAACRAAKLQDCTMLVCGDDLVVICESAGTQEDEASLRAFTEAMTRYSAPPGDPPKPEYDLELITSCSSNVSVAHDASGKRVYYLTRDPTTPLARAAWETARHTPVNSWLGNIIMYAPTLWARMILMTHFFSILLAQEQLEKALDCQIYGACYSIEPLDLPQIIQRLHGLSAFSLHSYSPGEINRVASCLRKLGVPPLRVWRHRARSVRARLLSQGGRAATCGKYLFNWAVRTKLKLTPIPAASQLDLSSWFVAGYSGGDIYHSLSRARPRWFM

In the case of `CN(C)S(=O)(=O)NC(=O)c1ccc2c(C3CCCCC3)c3n(c2c1)CC(c1nc(CC2CCOCC2)n(C)n1)=Cc1ccccc1-3` [Example 43, 13-cyclohexyl-N-[(dimethylamino)sulfonyl]-6-[1-methyl-5-[(tetrahydro-2H-pyran-4-yl)methyl]-1H-1,2,4-triazol-3-yl]-7H-indolo[2,1-a][2]benzazepine-10-carboxamide], on HCV NS5B, the IC50 fell in the range of 1 to 500 nM. In the assay on HCV replicon cells (Hepatitis C virus), this compound displayed a concentration giving a half-maximal response (EC50) above 500 nM.
The compound `CCn1nnc(C2=Cn3c(c(C4CCCCC4)c4ccc(C(=O)O)cc43)-c3ccccc3C2)n1` [Example 2, 13-cyclohexyl-6-(2-ethyl-2H-tetrazol-5-yl)-5H-indolo[2,1-a][2]benzazepine-10-carboxylic acid] displayed an IC50 at HCV NS5B of 1 to 500 nM. Moreover, the EC50 with HCV replicon cells (Hepatitis C virus) is above 500 nM.
Compound `COC(=O)c1ccc2c(C3CCCCC3)c3n(c2c1)CC(c1nc(CC2CCOCC2)n(C)n1)=Cc1ccccc1-3` [Example 41, 13-cyclohexyl-6-[1-methyl-5-[(tetrahydro-2H-pyran-4-yl)methyl]-1H-1,2,4-triazol-3-yl]-7H-indolo[2,1-a][2]benzazepine-10-carboxylic acid, methyl ester] returned an IC50 against HCV NS5B above 500 nM. In the assay on HCV replicon cells (Hepatitis C virus), this compound gave an EC50 above 500 nM.
As to `CCn1nnc(C2=Cc3ccccc3-c3c(C4CCCCC4)c4ccc(C(=O)NS(=O)(=O)N(C)C)cc4n3C2)n1` [Example 4], at HCV NS5B, the IC50 lay within 1 to 500 nM. The EC50 in the assay on HCV replicon cells (Hepatitis C virus) is above 500 nM.
For the compound `O=C(O)c1ccc2c(C3CCCCC3)c3n(c2c1)CC(c1nnn(CCO)n1)=Cc1ccccc1-3` [Example 5, 13-cyclohexyl-6-[2-(2-hydroxyethyl)-2H-tetrazol-5-yl]-7H-indolo[2,1-a][2]benzazepine-10-carboxylic acid], at HCV NS5B, the IC50 was above 500 nM. This compound had an EC50 in the assay on HCV replicon cells (Hepatitis C virus) above 500 nM.
In the case of `COc1ccc2c(c1)C[C@H](c1ncc(CCC(=O)N3CCOCC3)o1)Cn1c-2c(C2CCCCC2)c2ccc(C(=O)NS(=O)(=O)N(C)C)cc21` (single isomer, unassigned) [Example 54, 13-cyclohexyl-N-((dimethylamino)sulfonyl)-3-methoxy-6-(5-(3-(4-morpholinyl)-3-oxopropyl)-1,3-oxazol-2-yl)-6,7-dihydro-5H-indolo[2,1-a][2]benzazepine-10-carboxamide], the IC50 against HCV NS5B was 1 to 500 nM. The same compound showed an EC50 in the assay on HCV replicon cells (Hepatitis C virus) of 1 to 500 nM.
In turn, `CN(C)S(=O)(=O)NC(=O)c1ccc2c(C3CCCCC3)c3n(c2c1)CC(c1nc(CS(C)(=O)=O)no1)=Cc1ccccc1-3` [Example 28, 13-cyclohexyl-N-[(dimethylamino)sulfonyl]-6-[3-[(methylsulfonyl)methyl]-1,2,4-oxadiazol-5-yl]-7H-indolo[2,1-a][2]benzazepine-10-carboxamide] gave an IC50 on HCV NS5B of 1 to 500 nM. Further, the EC50 in the assay with HCV replicon cells (Hepatitis C virus) is above 500 nM.
The corresponding values for `O=C(O)c1ccc2c(C3CCCCC3)c3n(c2c1)C=C(c1nnn(CC2CCOCC2)n1)Cc1ccccc1-3` [Example 12, 13-cyclohexyl-6-[2-[(tetrahydro-2H-pyran-4-yl)methyl]-2H-tetrazol-5-yl]-5H-indolo[2,1-a][2]benzazepine-10-carboxylic acid] are above 500 nM and above 500 nM.
The like results for `O=C(O)c1ccc2c(C3CCCCC3)c3n(c2c1)CC(c1nn(CC2CCOCC2)c(=O)o1)=Cc1ccccc1-3` [Example 21, 13-cyclohexyl-6-[4,5-dihydro-5-oxo-4-[(tetrahydro-2H-pyran-4-yl)methyl]-1,3,4-oxadiazol-2-yl]-7H-indolo[2,1-a][2]benzazepine-10-carboxylic acid] were, in that order, 1 to 500 nM and above 500 nM.
The corresponding values for `O=C(O)c1ccc2c(C3CCCCC3)c3n(c2c1)CC(c1nnn(CC2CC2)n1)=Cc1ccccc1-3` [Example 6, 13-cyclohexyl-6-[2-(cyclopropylmethyl)-2H-tetrazol-5-yl]-7H-indolo[2,1-a][2]benzazepine-10-carboxylic acid] are above 500 nM and above 500 nM.
On HCV NS5B, `O=C(O)c1ccc2c(C3CCCCC3)c3n(c2c1)CC(c1n[nH]c(=O)o1)=Cc1ccccc1-3` [Example 19, 13-cyclohexyl-6-(4,5-dihydro-5-oxo-1,3,4-oxadiazol-2-yl)-7H-indolo[2,1-a][2]benzazepine-10-carboxylic acid] displayed an IC50 of 1 to 500 nM. In the assay on HCV replicon cells (Hepatitis C virus), this compound had an EC50 above 500 nM.
Take `COc1ccc2c(c1)CC(c1ncc(CCC(=O)N3CCOCC3)o1)Cn1c-2c(C2CCCCC2)c2ccc(C(=O)O)cc21` (single isomer, unassigned) [Example 52, 13-Cyclohexyl-3-methoxy-6-(5-(3-(4-morpholinyl)-3-oxopropyl)-1,3-oxazol-2-yl)-6,7-dihydro-5H-indolo[2,1-a][2]benzazepine-10-carboxylic acid]: at HCV NS5B, the IC50 fell in the range of 1 to 500 nM. The compound also yielded an EC50 in the assay with HCV replicon cells of 1 to 500 nM.
With `COc1ccc2c(c1)C=C(c1ncco1)Cn1c-2c(C2CCCCC2)c2ccc(C(=O)NS(=O)(=O)N(C)C)cc21` [Example 57, 13-Cyclohexyl-N-((dimethylamino)sulfonyl)-3-methoxy-6-(1,3-oxazol-2-yl)-7H-indolo[2,1-a][2]benzazepine-10-carboxamide], the IC50 at HCV NS5B is 1 to 500 nM. In addition, the EC50 with HCV replicon cells (Hepatitis C virus) is 1 to 500 nM.
Compound `COc1ccc2c(c1)C=C(c1ncco1)Cn1c-2c(C2CCCCC2)c2ccc(C(=O)O)cc21` [Example 56, 13-Cyclohexyl-3-methoxy-6-(1,3-oxazol-2-yl)-7H-indolo[2,1-a][2]benzazepine-10-carboxylic acid] returned an IC50 on HCV NS5B of 1 to 500 nM. For the same compound, the EC50 in the assay with HCV replicon cells (Hepatitis C virus) is above 500 nM.
